Assay results as given in US11708500B2, “Solvent compounds for use as coalescents” (TBF ENVIRONMENTAL TECHNOLOGY INC., priority 2017, dated 2023).
Read-outs that look alike come from different tables or passages of the source.

What was measured:
[1] = XTR5 vs Texanol coating in EPS 2708 acrylic emulsion polymer; conditions: EPS 2708 coating
Description: (§1) Bis(1-butoxypropan-2-yl) carbonate (TreviSol, XTR5) was used as a direct replacement for other typical coalescents, such as, Texanol™, as follows.

[2] = XTR5 vs Texanol paint in Raycryl 1526 acrylic emulsion polymer; conditions: Raycryl 1526 paint
Description: as §1

[3] = XTR5 vs Texanol coating in Raycryl 1001 acrylic emulsion polymer; conditions: Raycryl 1001 coating
Description: as §1

[4] = Physical/chemical properties of XTR5

| Compound | Specific Gravity [1] | VOC (Without Water) [1] | Viscosity [1] | Volume Solid % [1] | Weight Solid % [1] | Specific Gravity [2] | VOC (Without Water) [2] | Viscosity [2] | Volume Solid % [2] | Weight Solid % [2] | Specific Gravity [3] | VOC (Without Water) [3] | Viscosity [3] | Volume Solid % [3] | Weight Solid % [3] | further results |
| --- | --- | --- | --- | --- | --- | --- | --- | --- | --- | --- | --- | --- | --- | --- | --- | --- |
| CC(C)C(=O)OCC(C)(C)C(O)C(C)C (centres unmarked) [Texanol, 2-methyl-, 3-hydroxy-2,2,4-trimethylpentyl ester, reference compound] | 1.33 g/cm3 | 103.3 g/L | 95 KU | 41.0% | 54.5% | 1.25 g/cm3 | 95.0 g/L | 90 KU | 40.91% | 51.91% | 1.32 g/cm3 | 54.6 g/L | 95 KU | 41.1% | 54.6% | – |
| CCCCOCC(C)OC(=O)OC(C)COCCCC (centres unmarked) [XTR5, bis(1-butoxypropan-2-yl) carbonate] | 1.33 g/cm3 | 59.6 g/L | 95 KU | 41.0% | 54.5% | 1.25 g/cm3 | 45.0 g/L | 90 KU | 40.91% | 51.91% | 1.32 g/cm3 | 1.5 g/L | 95 KU | 41.1% | 54.6% | Clarity [4]: Clear; Colour (Alpha, max) [4]: 10; Density [4]: (7.94 lb/gal); Evaporation Rate [4]: Slow and Close to Texanol; Partial Coefficient (Range) [4]: 0.7-2.0; Texanol Solubility [4]: Soluble; VOC [4]: 0 g/L; Volatility (%) [4]: 100%; Water Solubility [4]: Not Soluble; Specific Gravity ([4]; @15.5°): 0.956; Density ([4]; @ 20° C.): 0.951 g/mL; Solubility in H2O ([4]; @ 25° C.): Insoluble; Vapour Pressure ([4]; @ 25° C.): 0.005 mm Hg; Viscosity ([4]; @ 25° C.): 0.58 cP; Vapour Density (mm Hg Air = 1) ([4]; Air = 1): 0.95; TGA Weight Loss ([4]; Ambient 115-240° C.): 97.94%; Evaporation Rate (n-Butyl Acetate = 1) ([4]; n-Butyl Acetate = 1): 0.0004 |
